Test results taken from patent US6914045B2, “Glycopeptide antibiotics” (Wyeth Holdings Corporation, priority 2001, dated 2005).
In brackets after ≈: the same amount, converted by molar mass.

Columns and labels:
Assay in all cases: in vitro antibacterial evaluation, MIC by broth dilution
Assay type in all cases: cell-based
Enterococcus sp. = details: broth dilution, 18 hours at 35° C.
Procedure, shortened: (§1)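 Broth dilution per NCCLS standard M7-A2 in Muller-Hinton II […], with an inoculum of 5×10^5 CFU/mL and antibiotic spanning 64-0.06 μg/mL. The MIC is the lowest concentration that inhibits growth of the organism.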

Staphylococcus sp. = details: broth dilution, 18 hours at 35° C.
Procedure, shortened: as §1

Streptococcus sp. = details: broth dilution, 18 hours at 35° C.
Procedure, shortened: as §1

Escherichia coli = details: 18 hours at 35° C.

- MIC Enterococcus avium (GC 4558) (Enterococcus sp.): 8 µg/mL (≈ 4.81 µM)
- MIC Enterococcus faecalis (ATCC 29212) (Enterococcus sp.): 64 µg/mL (≈ 38.5 µM)
- MIC Enterococcus faecalis (GC 2242) (Enterococcus sp.): 64 µg/mL (≈ 38.5 µM)
- MIC Enterococcus faecalis (GC 2691) (Enterococcus sp.): 64 µg/mL (≈ 38.5 µM)
- MIC Enterococcus faecalis (GC 3059) (Enterococcus sp.): 128 µg/mL (≈ 77 µM)
- MIC Enterococcus faecalis (GC 4552) (Enterococcus sp.): 64 µg/mL (≈ 38.5 µM)
- MIC Enterococcus faecalis (GC 4553) (Enterococcus sp.): 8 µg/mL (≈ 4.81 µM)
- MIC Enterococcus faecalis (GC 4554) (Enterococcus sp.): 128 µg/mL (≈ 77 µM)
- MIC Enterococcus faecalis (GC 6189) (Enterococcus sp.): 64 µg/mL (≈ 38.5 µM)
- MIC Enterococcus faecium (GC 2243) (Enterococcus sp.): 32 µg/mL (≈ 19.3 µM)
- MIC Enterococcus faecium (GC 4556) (Enterococcus sp.): 64 µg/mL (≈ 38.5 µM)
- MIC Enterococcus faecium (GC 4557) (Enterococcus sp.): 8 µg/mL (≈ 4.81 µM)
- MIC Enterococcus faecalis (ATCC 29212) (Enterococcus sp.; inoculum 5×10^5 CFU/mL, strain ATCC 29212): 64 µg/mL (≈ 38.5 µM)
- MIC Enterococcus faecalis (GC 2242) (Enterococcus sp.; inoculum 5×10^5 CFU/mL, strain GC 2242): 64 µg/mL (≈ 38.5 µM)
- MIC Enterococcus faecium (GC 2243) (Enterococcus sp.; inoculum 5×10^5 CFU/mL, strain GC 2243): 32 µg/mL (≈ 19.3 µM)
- MIC Enterococcus faecalis (GC 2691) (Enterococcus sp.; inoculum 5×10^5 CFU/mL, strain GC 2691): 64 µg/mL (≈ 38.5 µM)
- MIC Enterococcus faecalis (GC 3059) (Enterococcus sp.; inoculum 5×10^5 CFU/mL, strain GC 3059): 128 µg/mL (≈ 77 µM)
- MIC Enterococcus faecalis (GC 4552) (Enterococcus sp.; inoculum 5×10^5 CFU/mL, strain GC 4552): 64 µg/mL (≈ 38.5 µM)
- MIC Enterococcus faecalis (GC 4553) (Enterococcus sp.; inoculum 5×10^5 CFU/mL, strain GC 4553): 8 µg/mL (≈ 4.81 µM)
- MIC Enterococcus faecalis (GC 4554) (Enterococcus sp.; inoculum 5×10^5 CFU/mL, strain GC 4554): 128 µg/mL (≈ 77 µM)
- MIC Enterococcus faecium (GC 4556) (Enterococcus sp.; inoculum 5×10^5 CFU/mL, strain GC 4556): 64 µg/mL (≈ 38.5 µM)
- MIC Enterococcus faecium (GC 4557) (Enterococcus sp.; inoculum 5×10^5 CFU/mL, strain GC 4557): 8 µg/mL (≈ 4.81 µM)
- MIC Enterococcus avium (GC 4558) (Enterococcus sp.; inoculum 5×10^5 CFU/mL, strain GC 4558): 8 µg/mL (≈ 4.81 µM)
- MIC Enterococcus faecalis (GC 6189) (Enterococcus sp.; inoculum 5×10^5 CFU/mL, strain GC 6189): 64 µg/mL (≈ 38.5 µM)
- MIC Coagulase Negative Staphylococcus (GC 4547) (Staphylococcus sp.): 32 µg/mL (≈ 19.3 µM)
- MIC Coagulase Negative Staphylococcus (GC 4548) (Staphylococcus sp.): 4 µg/mL (≈ 2.41 µM)
- MIC Coagulase Negative Staphylococcus (GC 4549) (Staphylococcus sp.): 32 µg/mL (≈ 19.3 µM)
- MIC Coagulase Negative Staphylococcus (GC 4551) (Staphylococcus sp.): 8 µg/mL (≈ 4.81 µM)
- MIC Staphylococcus aureus-SMITH (GC 4543) (Staphylococcus sp.): 128 µg/mL (≈ 77 µM)
- MIC Staphylococcus aureus-SMITH (GC 4543) (Staphylococcus sp.; strain GC 4543): 128 µg/mL (≈ 77 µM)
- MIC Coagulase Negative Staphylococcus (GC 4547) (Staphylococcus sp.; strain GC 4547): 32 µg/mL (≈ 19.3 µM)
- MIC Coagulase Negative Staphylococcus (GC 4548) (Staphylococcus sp.; strain GC 4548): 4 µg/mL (≈ 2.41 µM)
- MIC Coagulase Negative Staphylococcus (GC 4549) (Staphylococcus sp.; strain GC 4549): 32 µg/mL (≈ 19.3 µM)
- MIC Coagulase Negative Staphylococcus (GC 4551) (Staphylococcus sp.; strain GC 4551): 8 µg/mL (≈ 4.81 µM)
- MIC Staphylococcus aureus (ATCC 29213) (Staphylococcus sp.; strain ATCC 29213): 128 µg/mL (≈ 77 µM)
- MIC Staphylococcus aureus (GC 1131) (Staphylococcus sp.; strain GC 1131): 128 µg/mL (≈ 77 µM)
- MIC Staphylococcus aureus (GC 3051) (Staphylococcus sp.; strain GC 3051): 128 µg/mL (≈ 77 µM)
- MIC Staphylococcus aureus (GC 3053) (Staphylococcus sp.; strain GC 3053): >128 µg/mL
- MIC Staphylococcus aureus (GC 4541) (Staphylococcus sp.; strain GC 4541): 128 µg/mL (≈ 77 µM)
- MIC Staphylococcus aureus (GC 4542) (Staphylococcus sp.; strain GC 4542): 128 µg/mL (≈ 77 µM)
- MIC Staphylococcus aureus (GC 4544) (Staphylococcus sp.; strain GC 4544): 128 µg/mL (≈ 77 µM)
- MIC Staphylococcus aureus (GC 4545) (Staphylococcus sp.; strain GC 4545): 128 µg/mL (≈ 77 µM)
- MIC Streptococcus agalactiae (GC 4564) (Streptococcus sp.): 4 µg/mL (≈ 2.41 µM)
- MIC Streptococcus pneumoniae (ATCC 6301) (Streptococcus sp.): 32 µg/mL (≈ 19.3 µM)
- MIC Streptococcus pneumoniae (GC 1894) (Streptococcus sp.): 32 µg/mL (≈ 19.3 µM)
- MIC Streptococcus pneumoniae (GC 4565) (Streptococcus sp.): 64 µg/mL (≈ 38.5 µM)
- MIC Streptococcus pyogenes (GC 4563) (Streptococcus sp.): 32 µg/mL (≈ 19.3 µM)
- MIC Streptococcus pneumoniae (ATCC 6301) (Streptococcus sp.; inoculum 5×10^5 CFU/mL, strain ATCC 6301): 32 µg/mL (≈ 19.3 µM)
- MIC Streptococcus pneumoniae (GC 1894) (Streptococcus sp.; inoculum 5×10^5 CFU/mL, strain GC 1894): 32 µg/mL (≈ 19.3 µM)
- MIC Streptococcus pyogenes (GC 4563) (Streptococcus sp.; inoculum 5×10^5 CFU/mL, strain GC 4563): 32 µg/mL (≈ 19.3 µM)
- MIC Streptococcus agalactiae (GC 4564) (Streptococcus sp.; inoculum 5×10^5 CFU/mL, strain GC 4564): 64 µg/mL (≈ 38.5 µM)
- MIC Streptococcus pneumoniae (GC 4565) (Streptococcus sp.; inoculum 5×10^5 CFU/mL, strain GC 4565): 64 µg/mL (≈ 38.5 µM)
- MIC Escherichia coli (ATCC 25922) (Escherichia coli): >128 µg/mL
- MIC Escherichia coli (GC 4559) (Escherichia coli): >128 µg/mL
- MIC Escherichia coli (GC 4560) (Escherichia coli): 8 µg/mL (≈ 4.81 µM)
Structure (SMILES): CC(c1ccccc1)C1NC(=O)CNC(=O)C(CO)NC(=O)C(C(O)C2CN(c3nc4ccccc4o3)C(=N)N2C2OC(CO)C(O)C(O)C2O)NC(=O)C(C(O)C2CNC(=Nc3nc4ccccc4o3)N2)NC(=O)C(Cc2ccc(OC3OC(CO)C(OC4OC5COC6(OC5C(O)C4O)C4CC5CC(C4)CC6C5)C(O)C3O)cc2)NC1=O (stereo not drawn) [Example 227]
- MIC Staphylococcus haemolyticus (GC 4546) (Staphylococcus sp.): 64 µg/mL (≈ 38.5 µM)
- MIC Staphylococcus haemolyticus (GC 4546) (Staphylococcus sp.; strain GC 4546): 64 µg/mL (≈ 38.5 µM)
